Measurements published in ChEMBL document CHEMBL1153049, “Identification of aminoethyl pyrrolo dihydroisoquinolinones as novel poly(ADP-ribose) polymerase-1 inhibitors” (Bioorg Med Chem Lett, 2009).
pIC50: −log10 of the molar value. The source made the active and inactive calls. The rule behind the calls is not given here.

Legend:
[1] = biological target: Poly [ADP-ribose] polymerase 2 (Homo sapiens, UniProt Q9UGN5); assay: Inhibition of human PARP2 expressed in baculovirus system
[2] = biological target: T1, Protein mono-ADP-ribosyltransferase PARP3 (Homo sapiens) (UniProt Q9Y6F1); assay: Inhibition of human PARP3 up to 500 nM
T1 sequence (whole entry): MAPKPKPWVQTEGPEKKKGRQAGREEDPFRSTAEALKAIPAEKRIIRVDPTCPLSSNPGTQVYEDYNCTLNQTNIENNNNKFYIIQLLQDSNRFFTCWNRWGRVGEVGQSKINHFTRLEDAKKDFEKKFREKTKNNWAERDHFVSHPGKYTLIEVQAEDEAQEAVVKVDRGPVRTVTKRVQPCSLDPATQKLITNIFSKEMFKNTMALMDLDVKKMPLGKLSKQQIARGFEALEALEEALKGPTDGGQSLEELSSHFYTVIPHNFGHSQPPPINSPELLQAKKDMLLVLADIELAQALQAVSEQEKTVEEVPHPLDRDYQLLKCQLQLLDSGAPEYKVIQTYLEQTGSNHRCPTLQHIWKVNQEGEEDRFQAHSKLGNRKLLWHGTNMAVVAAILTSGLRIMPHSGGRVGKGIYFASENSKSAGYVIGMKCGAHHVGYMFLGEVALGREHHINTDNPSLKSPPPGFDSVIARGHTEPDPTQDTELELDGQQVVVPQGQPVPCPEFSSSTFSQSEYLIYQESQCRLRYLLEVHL

[3] = biological target: T2, Poly [ADP-ribose] polymerase tankyrase-1 (Homo sapiens) (UniProt O95271); assay: Inhibition of human tankyrase 1 catalytic domain expressed in Escherichia coli up to 500 nM
T2 sequence (whole entry): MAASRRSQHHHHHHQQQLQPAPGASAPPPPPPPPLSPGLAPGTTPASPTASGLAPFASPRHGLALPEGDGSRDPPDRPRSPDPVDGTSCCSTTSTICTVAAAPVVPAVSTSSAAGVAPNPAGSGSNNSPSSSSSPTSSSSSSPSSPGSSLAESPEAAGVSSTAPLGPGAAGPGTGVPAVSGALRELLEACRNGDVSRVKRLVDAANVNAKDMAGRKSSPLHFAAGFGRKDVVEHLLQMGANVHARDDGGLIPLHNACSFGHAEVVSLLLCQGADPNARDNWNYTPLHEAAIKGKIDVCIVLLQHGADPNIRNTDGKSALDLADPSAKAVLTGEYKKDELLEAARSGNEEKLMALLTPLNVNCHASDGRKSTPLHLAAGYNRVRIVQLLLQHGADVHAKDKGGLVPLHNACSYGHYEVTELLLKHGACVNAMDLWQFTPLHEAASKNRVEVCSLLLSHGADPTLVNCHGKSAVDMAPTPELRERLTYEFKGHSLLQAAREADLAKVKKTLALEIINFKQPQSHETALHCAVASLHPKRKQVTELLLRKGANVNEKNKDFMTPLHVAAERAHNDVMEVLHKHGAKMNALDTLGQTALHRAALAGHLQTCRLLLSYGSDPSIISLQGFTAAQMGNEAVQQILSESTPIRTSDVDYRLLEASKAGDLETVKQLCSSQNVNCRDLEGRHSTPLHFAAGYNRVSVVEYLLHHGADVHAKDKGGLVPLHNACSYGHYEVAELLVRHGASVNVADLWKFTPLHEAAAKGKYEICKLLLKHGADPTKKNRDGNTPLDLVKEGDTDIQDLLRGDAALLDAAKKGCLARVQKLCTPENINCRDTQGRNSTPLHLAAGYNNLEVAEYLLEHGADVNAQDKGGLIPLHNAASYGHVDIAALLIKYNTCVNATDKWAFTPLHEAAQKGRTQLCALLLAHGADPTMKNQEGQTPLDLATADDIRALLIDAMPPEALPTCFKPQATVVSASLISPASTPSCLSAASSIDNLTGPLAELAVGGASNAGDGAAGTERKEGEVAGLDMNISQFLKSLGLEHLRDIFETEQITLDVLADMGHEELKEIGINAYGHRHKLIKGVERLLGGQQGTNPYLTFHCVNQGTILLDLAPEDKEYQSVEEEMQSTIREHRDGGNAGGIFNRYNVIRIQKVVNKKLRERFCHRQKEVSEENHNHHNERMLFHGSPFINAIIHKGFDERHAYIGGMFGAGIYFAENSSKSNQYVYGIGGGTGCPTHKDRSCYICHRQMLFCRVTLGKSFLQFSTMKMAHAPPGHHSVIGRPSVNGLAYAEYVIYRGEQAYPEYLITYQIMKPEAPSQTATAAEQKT

[4] = biological target: Protein mono-ADP-ribosyltransferase PARP4 (Homo sapiens) (UniProt Q9UKK3); assay: Inhibition of human vPARP catalytic domain expressed in Escherichia coli up to 500 nM
[5] = biological target: Poly [ADP-ribose] polymerase 1 (Homo sapiens, UniProt P09874)
Poly [ADP-ribose] polymerase 1, sequence (P09874 whole entry): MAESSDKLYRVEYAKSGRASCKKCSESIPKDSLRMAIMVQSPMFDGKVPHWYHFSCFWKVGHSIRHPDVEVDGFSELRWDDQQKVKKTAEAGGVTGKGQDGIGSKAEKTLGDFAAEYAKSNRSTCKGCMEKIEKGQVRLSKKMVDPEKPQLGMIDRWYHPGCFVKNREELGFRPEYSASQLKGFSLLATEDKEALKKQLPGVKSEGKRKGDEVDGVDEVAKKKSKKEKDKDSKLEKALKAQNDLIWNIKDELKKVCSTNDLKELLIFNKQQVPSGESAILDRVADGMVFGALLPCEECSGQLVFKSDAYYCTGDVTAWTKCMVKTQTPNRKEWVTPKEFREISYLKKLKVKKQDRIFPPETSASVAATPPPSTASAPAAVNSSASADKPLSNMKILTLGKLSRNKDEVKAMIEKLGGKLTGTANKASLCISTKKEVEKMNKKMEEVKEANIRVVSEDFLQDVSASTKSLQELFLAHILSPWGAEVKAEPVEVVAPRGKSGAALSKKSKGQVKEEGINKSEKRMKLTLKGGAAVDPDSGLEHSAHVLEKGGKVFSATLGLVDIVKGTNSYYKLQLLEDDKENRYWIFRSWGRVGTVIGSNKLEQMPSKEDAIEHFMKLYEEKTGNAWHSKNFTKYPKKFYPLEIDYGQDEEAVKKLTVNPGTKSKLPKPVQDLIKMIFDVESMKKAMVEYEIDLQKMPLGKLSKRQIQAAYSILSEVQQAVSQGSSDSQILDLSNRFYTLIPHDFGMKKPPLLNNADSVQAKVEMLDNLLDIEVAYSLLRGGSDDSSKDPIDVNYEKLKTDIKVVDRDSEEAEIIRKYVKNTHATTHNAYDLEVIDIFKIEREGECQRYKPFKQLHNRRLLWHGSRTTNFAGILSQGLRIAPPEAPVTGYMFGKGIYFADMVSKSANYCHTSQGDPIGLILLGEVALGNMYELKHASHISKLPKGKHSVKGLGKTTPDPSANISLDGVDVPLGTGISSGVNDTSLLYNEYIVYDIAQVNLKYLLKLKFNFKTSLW
Description: Inhibition of PARP1 in human HeLa cells by microplate scintillation counting

Poly [ADP-ribose] polymerase 2, sequence (Q9UGN5 whole entry): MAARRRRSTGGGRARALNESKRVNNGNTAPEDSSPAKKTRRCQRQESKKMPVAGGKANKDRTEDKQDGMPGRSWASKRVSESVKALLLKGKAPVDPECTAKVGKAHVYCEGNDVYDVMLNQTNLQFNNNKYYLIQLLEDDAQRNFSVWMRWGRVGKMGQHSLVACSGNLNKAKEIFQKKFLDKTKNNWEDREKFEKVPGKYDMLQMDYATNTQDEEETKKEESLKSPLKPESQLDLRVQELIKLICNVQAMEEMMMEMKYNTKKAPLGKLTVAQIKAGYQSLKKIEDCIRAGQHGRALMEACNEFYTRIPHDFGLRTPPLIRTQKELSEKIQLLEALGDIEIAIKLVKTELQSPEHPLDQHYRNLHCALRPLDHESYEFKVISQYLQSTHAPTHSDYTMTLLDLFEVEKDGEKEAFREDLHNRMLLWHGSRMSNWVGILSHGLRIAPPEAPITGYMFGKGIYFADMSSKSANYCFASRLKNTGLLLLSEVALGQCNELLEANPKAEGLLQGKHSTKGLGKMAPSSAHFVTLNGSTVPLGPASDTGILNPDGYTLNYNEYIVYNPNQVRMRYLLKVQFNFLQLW
Protein mono-ADP-ribosyltransferase PARP4 (Homo sapiens), sequence (Q9UKK3 whole entry, the tested form may be a part): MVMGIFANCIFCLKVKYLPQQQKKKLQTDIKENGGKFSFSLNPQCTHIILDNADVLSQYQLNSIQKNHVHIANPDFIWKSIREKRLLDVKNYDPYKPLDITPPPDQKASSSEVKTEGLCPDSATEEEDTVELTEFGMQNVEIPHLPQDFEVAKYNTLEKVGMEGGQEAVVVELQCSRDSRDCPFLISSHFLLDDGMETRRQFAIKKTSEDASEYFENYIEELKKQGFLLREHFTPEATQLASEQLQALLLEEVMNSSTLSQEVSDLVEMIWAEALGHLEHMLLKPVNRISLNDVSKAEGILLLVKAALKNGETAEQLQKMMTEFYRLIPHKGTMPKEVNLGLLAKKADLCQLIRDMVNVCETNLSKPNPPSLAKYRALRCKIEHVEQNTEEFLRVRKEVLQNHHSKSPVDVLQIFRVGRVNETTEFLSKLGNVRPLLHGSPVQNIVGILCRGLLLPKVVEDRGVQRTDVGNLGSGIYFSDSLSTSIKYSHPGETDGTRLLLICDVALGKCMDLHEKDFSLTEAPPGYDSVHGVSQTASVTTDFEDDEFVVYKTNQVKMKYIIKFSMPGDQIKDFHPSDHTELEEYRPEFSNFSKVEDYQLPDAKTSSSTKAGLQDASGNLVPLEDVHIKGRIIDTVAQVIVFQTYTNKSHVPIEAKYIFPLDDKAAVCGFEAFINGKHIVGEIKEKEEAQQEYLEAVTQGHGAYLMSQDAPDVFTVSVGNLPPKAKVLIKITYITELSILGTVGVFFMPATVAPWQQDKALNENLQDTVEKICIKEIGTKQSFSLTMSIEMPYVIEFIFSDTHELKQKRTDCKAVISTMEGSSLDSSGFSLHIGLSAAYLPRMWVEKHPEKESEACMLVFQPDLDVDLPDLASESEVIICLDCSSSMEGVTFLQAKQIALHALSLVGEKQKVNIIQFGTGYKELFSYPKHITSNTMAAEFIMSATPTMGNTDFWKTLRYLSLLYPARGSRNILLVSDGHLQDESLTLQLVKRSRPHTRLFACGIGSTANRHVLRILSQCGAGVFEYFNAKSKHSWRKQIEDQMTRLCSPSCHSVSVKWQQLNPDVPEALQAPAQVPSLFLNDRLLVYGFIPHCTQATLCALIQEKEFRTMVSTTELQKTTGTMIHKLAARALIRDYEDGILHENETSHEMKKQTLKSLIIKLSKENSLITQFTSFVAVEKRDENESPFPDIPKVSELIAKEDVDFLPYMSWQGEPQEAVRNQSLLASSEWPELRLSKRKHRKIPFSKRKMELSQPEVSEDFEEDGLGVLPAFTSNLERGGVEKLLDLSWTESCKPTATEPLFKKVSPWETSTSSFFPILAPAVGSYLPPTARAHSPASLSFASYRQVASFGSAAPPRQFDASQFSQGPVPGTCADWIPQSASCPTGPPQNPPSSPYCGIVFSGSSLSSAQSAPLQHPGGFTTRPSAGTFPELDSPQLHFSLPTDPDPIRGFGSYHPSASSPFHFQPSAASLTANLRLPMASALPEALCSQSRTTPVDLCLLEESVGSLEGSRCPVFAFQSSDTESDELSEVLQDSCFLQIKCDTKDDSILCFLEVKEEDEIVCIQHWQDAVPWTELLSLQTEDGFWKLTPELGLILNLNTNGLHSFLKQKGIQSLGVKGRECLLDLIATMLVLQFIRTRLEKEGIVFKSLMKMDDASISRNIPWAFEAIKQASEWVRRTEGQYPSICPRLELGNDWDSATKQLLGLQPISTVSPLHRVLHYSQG

With `O=C1NCCc2c1ccc1[nH]cc(CCNC(=O)N3CCNCC3)c21` the pIC50 [1] was 7.49, the inhibition [2] was “inactive” and the inhibition [3] was “inactive”. For the same compound, the inhibition [4] was “inactive” and the pIC50 [5] was 7.60.

`O=C1NCCc2c1ccc1[nH]cc(CCNCc3cccc4cccnc34)c21` gave a pIC50 [5] of less than 6.30.

In the case of `O=C1NCCc2c1ccc1[nH]cc(CCNC(=O)N3CCCNCC3)c21`, the pIC50 [1] was 7.77, the inhibition [2] was “inactive” and the inhibition [3] was “inactive”. For the same compound, the inhibition [4] was “inactive” and the pIC50 [5] was 7.57.

Compound `Cn1cc(CNCCc2c[nH]c3ccc4c(c23)CCNC4=O)cn1` has a pIC50 [5] of less than 6.30.
